Reference: US8124624B2, “Substituted sulfonamide compounds” (Gruenenthal GmbH, priority 2008, dated 2012)

Key:
human B1R = target: T1, human B1R (Homo sapiens, UniProt P46663); assay: FLIPR Ca2+ influx assay, B1R antagonism, human (hB1R CHO K1 cells); type: cell-based; settings: test substance 10 μM, CHO K1 cells stably transfected with human B1R, agonist Lys-Des-Arg9-bradykinin at EC80, % inhibition compared with maximum achievable inhibition; for inhibition at 10 µM: read-out: B1R antagonism, human [10 μM] % inhibition
T1 construct: expressed in transfected cells; host or cells: CHO K1 cells (hB1R cells)
T1 sequence (P46663 1-353): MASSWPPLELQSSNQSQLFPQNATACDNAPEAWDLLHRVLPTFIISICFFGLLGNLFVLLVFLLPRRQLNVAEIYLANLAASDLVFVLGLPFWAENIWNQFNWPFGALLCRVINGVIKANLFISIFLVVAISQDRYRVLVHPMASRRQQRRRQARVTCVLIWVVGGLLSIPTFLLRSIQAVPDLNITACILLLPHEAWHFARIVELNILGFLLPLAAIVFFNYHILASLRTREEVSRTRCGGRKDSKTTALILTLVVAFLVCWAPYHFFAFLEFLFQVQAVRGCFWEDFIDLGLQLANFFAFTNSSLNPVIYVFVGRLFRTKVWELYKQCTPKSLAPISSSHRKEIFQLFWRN
In short: (§1)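 CHO K1 cells stably expressing human or rat B1R were loaded with Fluo-4, and Ca^2+ fluorescence was read on a FLIPR. After 10–20 min with test substance, agonist was added at EC80: Lys-Des-Arg^9-bradykinin for hB1R, Des-Arg^9-bradykinin for rB1R. % inhibition is relative to maximal inhibition; IC50 from multiple concentrations, n=2–3, N≥2.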

B1R of the rat = target: T2, B1R of the rat (Rattus norvegicus, UniProt P97583); assay: FLIPR Ca2+ influx assay, B1R antagonism, rat (rB1R CHO K1 cells); type: cell-based; settings: test substance 10 μM, CHO K1 cells stably transfected with rat B1R, agonist Des-Arg9-bradykinin at EC80, % inhibition compared with maximum achievable inhibition; for inhibition at 10 µM: read-out: B1R antagonism, rat [10 μM] % inhibition
T2 construct: expressed in transfected cells; host or cells: CHO K1 cells (rB1R cells)
T2 sequence (P97583 1-337): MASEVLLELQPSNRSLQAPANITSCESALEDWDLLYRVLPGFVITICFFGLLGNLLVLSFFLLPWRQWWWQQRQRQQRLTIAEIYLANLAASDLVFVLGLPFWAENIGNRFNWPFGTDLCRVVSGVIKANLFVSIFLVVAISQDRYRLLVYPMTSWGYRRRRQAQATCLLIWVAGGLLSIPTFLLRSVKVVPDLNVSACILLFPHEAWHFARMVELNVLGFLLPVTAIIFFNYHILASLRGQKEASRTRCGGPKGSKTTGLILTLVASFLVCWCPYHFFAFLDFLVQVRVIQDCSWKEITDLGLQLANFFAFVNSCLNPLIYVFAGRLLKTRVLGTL
In short: as §1

Row | Compound | inhibition at 10 µM (human B1R) [%] | inhibition at 10 µM (B1R of the rat) [%] | B1R antagonism, human [10 μM] % inhibition (human B1R) [%] | B1R antagonism, rat [10 μM] % inhibition (B1R of the rat) [%]
1 | COc1cc(C)c(S(=O)(=O)N2CCCC[C@H]2COCC(=O)N2CCC(CN3CCCC3)(c3cccnc3)CC2)c(C)c1 [Example 25, (S)-2-((1-(4-Methoxy-2,6-dimethylphenylsulfonyl)piperidin-2-yl)methoxy)-1-(4-(pyridin-3-yl)-4-(pyrrolidin-1-ylmethyl)piperidin-1-yl)ethanone] | 97 | 63 |  | 
2 | COc1cc(C)c(S(=O)(=O)N2CCCCC2COCC(=O)N2CCC(CCCN3CCCC3)(c3cccnc3)CC2)c(C)c1 (stereo not drawn) [Example 26, 2-[[1-[(4-Methoxy-2,6-dimethyl-phenyl)sulfonyl]-piperidin-2-yl]-methoxy]-1-[4-pyridin-3-yl-4-(3-pyrrolidin-1-yl-propyl)-piperidin-1-yl]-ethanone] |  |  | 100 | 103
3 | COc1cc(C)c(S(=O)(=O)N2CCCCC2COCC(=O)N2CCC(CCCN3CCCC3)(c3cccnc3)CC2)c(C)c1 (stereo not drawn) [Example 27, 2-[[1-[(4-Methoxy-2,6-dimethyl-phenyl)sulfonyl]-piperidin-2-yl]-methoxy]-1-[4-pyridin-3-yl-4-(3-pyrrolidin-1-yl-propyl)-piperidin-1-yl]-ethanone] |  |  | 100 | 102
4 | COc1cc(C)c(S(=O)(=O)N(C)CCOCC(=O)N2CCC(CCCN3CCCC3)(c3cccnc3)CC2)c(C)c1 [Example 29, 4-Methoxy-N,2,6-trimethyl-N-[2-[2-oxo-2-[4-pyridin-3-yl-4-(3-pyrrolidin-1-yl-propyl)-piperidin-1-yl]-ethoxy]-ethyl]-benzenesulfonic acid amide] |  |  | 100 | 101
5 | COc1cc(C)c(S(=O)(=O)N(C)CCOCC(=O)N2CCC(CCCN3CCCC3)(c3cccnc3)CC2)c(C)c1C [Example 31, 4-Methoxy-N,2,3,6-tetramethyl-N-[2-[2-oxo-2-[4-pyridin-3-yl-4-(3-pyrrolidin-1-yl-propyl)-piperidin-1-yl]-ethoxy]-ethyl]-benzenesulfonic acid amide] | 100 | 101 |  | 
6 | COc1cc(C)c(S(=O)(=O)N(CCOCC(=O)N2CCC(CCCN3CCCC3)(c3cccnc3)CC2)Cc2ccccc2)c(C)c1 [Example 37, N-Benzyl-4-Methoxy-2,6-dimethyl-N-[2-[2-oxo-2-[4-pyridin-3-yl-4-(3-pyrrolidin-1-yl-propyl)-piperidin-1-yl]-ethoxy]-ethyl]-benzenesulfonic acid amide] | 100 | 103 |  | 
7 | COc1cc(C)c(S(=O)(=O)N(CCOCC(=O)N2CCC(CCCN3CCCC3)(c3cccnc3)CC2)Cc2ccccc2)c(C)c1 [Example 38, N-Benzyl-4-Methoxy-2,6-dimethyl-N-[2-[2-oxo-2-[4-pyridin-3-yl-4-(3-pyrrolidin-1-yl-propyl)-piperidin-1-yl]-ethoxy]-ethyl]-benzenesulfonic acid amide] |  |  | 100 | 101
8 | O=C(COCC1CCCCN1S(=O)(=O)c1ccccc1C(F)(F)F)N1CCC(CCCN2CCCC2)(c2cccnc2)CC1 (stereo not drawn) [Example 41, 1-[4-Pyridin-3-yl-4-(3-pyrrolidin-1-yl-propyl)-piperidin-1-yl]-2-[[1-[[2-(trifluoromethyl)-phenyl]sulfonyl]-piperidin-2-yl]-methoxy]-ethanone] | 100 | 104 |  | 
9 | O=C(COCC1CCCCN1S(=O)(=O)c1ccccc1C(F)(F)F)N1CCC(CCCN2CCCC2)(c2cccnc2)CC1 (stereo not drawn) [Example 42, 1-[4-Pyridin-3-yl-4-(3-pyrrolidin-1-yl-propyl)-piperidin-1-yl]-2-[[1-[[2-(trifluoromethyl)-phenyl]sulfonyl]-piperidin-2-yl]-methoxy]-ethanone] |  |  | 100 | 102
